The test system of one data set is Chilo suppressalis. As to the kind of experiment: Activity against Chilo suppressalis (striped rice stemborer), artificial diet in 24-well plates. The class given is in vivo. The conditions noted are these: 144 h, application rate 200 ppm, L2 larvae, 6 days after infestation. As for the experimental part:
24-well microtiter plates with artificial diet were treated with aqueous test solutions prepared from 10′000 ppm DMSO stock solutions by pipetting. After drying, the plates were infested with L2 larvae (6-8 per well). The samples were assessed for mortality, anti-feeding effect, and growth inhibition in comparison to untreated samples 6 days after infestation. Control of Chilo suppressalis by a test sample is given when at least one of the categories mortality, anti-feedant effect, and growth inhibition is higher than the untreated sample.

A further data set relates to Diabrotica balteata. As to the kind of experiment: Activity against Diabrotica balteata (corn root worm), sprayed maize sprouts. Format: in vivo. The conditions noted are these: 96 h, application rate 200 ppm, L2 larvae, 4 days after infestation, read-out: effect in at least one of the two categories (mortality or growth inhibition). As for the experimental part:
Maize sprouts placed onto an agar layer in 24-well microtiter plates were treated with aqueous test solutions prepared from 10′000 ppm DMSO stock solutions by spraying. After drying, the plates were infested with L2 larvae (6 to 10 per well). The samples were assessed for mortality and growth inhibition in comparison to untreated samples 4 days after infestation.
(§1) Activity of compound P5 according to the preparatory examples and of compound P.118 from WO 21/083936 against Plutella xylostella ([…]) and Diabrotica balteata (Example B2) is summarized in Table B9.

The test system of another data set is Plutella xylostella. Briefly: Activity against Plutella xylostella (diamond back moth), artificial diet. The class given is in vivo. The conditions noted are these: 192 h, application rate 200 ppm, eggs, 8 days after infestation, read-out: effect in at least one of the two categories (mortality or growth inhibition). As for the experimental part: 24-well microtiter plates with artificial diet were treated with aqueous test solutions prepared from 10′000 ppm DMSO stock solutions by pipetting. After drying, Plutella eggs were pipetted through a plastic stencil onto a gel blotting paper and the plate was closed with it. The samples were assessed for mortality and growth inhibition in comparison to untreated samples 8 days after infestation.
as §1

The next data set concerns Spodoptera littoralis. Briefly: Activity against Spodoptera littoralis (Egyptian cotton leaf worm), sprayed cotton leaf discs. Format: in vivo. Conditions: foliar, 72 h, application rate 200 ppm, L1 larvae, 3 days after infestation. As for the experimental part: Cotton leaf discs were placed onto agar in 24-well microtiter plates and sprayed with aqueous test solutions prepared from 10′000 ppm DMSO stock solutions. After drying the leaf discs were infested with five L1 larvae. The samples were assessed for mortality, anti-feeding effect, and growth inhibition in comparison to untreated samples 3 days after infestation. Control of Spodoptera littoralis by a test sample is given when at least one of the categories mortality, anti-feedant effect, and growth inhibition is higher than the untreated sample.

For data set [1], the system named is Myzus persicae. As to the kind of experiment: Activity against Myzus persicae (green peach aphid), intrinsic activity. Format: in vivo. The conditions noted are these: 120 h, test rate 12 ppm, 5 days after infestation. As for the experimental part:
Test compounds prepared from 10′000 ppm DMSO stock solutions were applied by pipette into 24-well microtiter plates and mixed with sucrose solution. The plates were closed with a stretched Parafilm. A plastic stencil with 24 holes was placed onto the plate and infested pea seedlings were placed directly on the Parafilm. The infested plate was closed with a gel blotting paper and another plastic stencil and then turned upside down. The samples were assessed for mortality 5 days after infestation.

A further data set relates to Euschistus heros. As to the kind of experiment: Activity against Euschistus heros (neotropical brown stink bug), sprayed soybean leaves. Format: in vivo. The conditions noted are these: 120 h, application rate 200 ppm, N2 nymphs, 5 days after infestation, read-out: effect in at least one of the two categories (mortality or growth inhibition). As for the experimental part: Soybean leaves on agar in 24-well microtiter plates were sprayed with aqueous test solutions prepared from 10′000 ppm DMSO stock solutions. After drying the leaves were infested with N2 nymphs. The samples were assessed for mortality and growth inhibition in comparison to untreated samples 5 days after infestation.

Data set [2] concerns Frankliniella occidentalis. As to the kind of experiment: Activity against Frankliniella occidentalis (western flower thrips), sprayed sunflower leaf discs. The class given is in vivo. Conditions: foliar, 168 h, application rate 200 ppm, mixed ages, 7 days after infestation. As for the experimental part: Sunflower leaf discs were placed on agar in 24-well microtiter plates and sprayed with aqueous test solutions prepared from […] stock solutions. After drying the leaf discs were infested with a Frankliniella population of mixed ages. The samples were assessed for mortality 7 days after infestation.

Data set [3] has as its system Myzus persicae. As to the kind of experiment: Activity against Myzus persicae (green peach aphid), feeding/contact activity. The class given is in vivo. Conditions: 144 h, application rate 200 ppm, mixed ages, 6 days after infestation. As for the experimental part:
Sunflower leaf discs were placed onto agar in a 24-well microtiter plate and sprayed with aqueous test solutions prepared from 10′000 ppm DMSO stock solutions. After drying, the leaf discs were infested with an aphid population of mixed ages. The samples were assessed for mortality 6 days after infestation.

Consider five molecules from patent US20240294517A1, “2-[3-[1 [(QUINAZOLIN-4-YL)AMINO]ETHYL]PYRAZIN-2-YL]THIAZOLE-5-CARBONITRILE DERIVATIVES AND SIMILAR COMPOUNDS AS PESTICIDES” (SYNGENTA CROP PROTECTION AG, priority 2021, published 2024).

Molecules are shown by their SMILES.

Turning to `C[C@H](Nc1ncnc2c(Cl)cc(C(F)(F)F)cc12)c1ncnn1-c1ncc(C#N)s1` [P15, 2-[5-[(1S)-1-[[8-chloro-6-(trifluoromethyl)quinazolin-4-yl]amino]ethyl]-1,2,4-triazol-1-yl]thiazole-5-carbonitrile], the percent control (mortality, anti-feedant effect or growth inhibition) at 200 ppm with Chilo suppressalis and with Spodoptera littoralis was at least 80% in each case. Further, the percent effect (mortality or growth inhibition) at 200 ppm in the data set on Diabrotica balteata and in the data set on Plutella xylostella was at least 80% each time. The molecule also displayed a mortality at 12 ppm in the data set on Myzus persicae [1] of at least 80%.
Turning to `C[C@@H](c1ncnn1-c1ncc(C#N)s1)N(C)c1ncnc2c(Cl)cc(C(F)(F)F)cc12` [P17, 2-[5-[(1S)-1-[[8-chloro-6-(trifluoromethyl)quinazolin-4-yl]-methyl-amino]ethyl]-1,2,4-triazol-1-yl]thiazole-5-carbonitrile], the percent control (mortality, anti-feedant effect or growth inhibition) at 200 ppm in the data set with Chilo suppressalis and with Spodoptera littoralis was at least 80% throughout. Moreover, the percent effect (mortality or growth inhibition) at 200 ppm with Diabrotica balteata, in the data set with Euschistus heros and in the data set on Plutella xylostella was at least 80% in each case.
`CC(Nc1nc(Cl)nc2c(Br)cc(C(F)(F)F)cc12)c1nccnc1-c1ncc(Br)s1` (stereo not drawn) [P3, 8-bromo-N-[1-[3-(5-bromothiazol-2-yl)pyrazin-2-yl]ethyl]-2-chloro-6-(trifluoromethyl)quinazolin-4-amine] registered a melting point of 197 to 199 °C.
`C[C@H](Nc1ncnc2c(Cl)cc(I)cc12)c1ncnn1-c1ncc(C#N)s1` [P20, 2-[5-[(1S)-1-[(8-chloro-6-iodo-quinazolin-4-yl)amino]ethyl]-1,2,4-triazol-1-yl]thiazole-5-carbonitrile]: the percent control (mortality, anti-feedant effect or growth inhibition) at 200 ppm in the data set on Chilo suppressalis and in the data set with Spodoptera littoralis was at least 80% throughout. The percent effect (mortality or growth inhibition) at 200 ppm with Diabrotica balteata and in the data set with Plutella xylostella was at least 80% throughout. The molecule also displayed a mortality at 200 ppm in data set [2] of at least 80%.
For `C[C@H](Nc1ncnc2c(Br)cc(Br)cc12)c1ncnn1-c1ncc(C#N)s1` [P14, 2-[5-[(1S)-1-[(6,8-dibromoquinazolin-4-yl)amino]ethyl]-1,2,4-triazol-1-yl]thiazole-5-carbonitrile], the percent control (mortality, anti-feedant effect or growth inhibition) at 200 ppm in the data set on Chilo suppressalis and with Spodoptera littoralis was at least 80% throughout. For the same molecule, the percent effect (mortality or growth inhibition) at 200 ppm in the data set on Diabrotica balteata and with Plutella xylostella was at least 80% in each case. The molecule further had a mortality at 200 ppm in the data set with Myzus persicae [3] of at least 80%.
